Experimental data from patent US7888355B2, “Compositions and methods for inhibiting growth and metastasis of melanoma” (Burnham Institute for Medical Research, priority 2007, dated 2011).
Like-named read-outs stand apart in the source and are kept apart here.

Experiments:
[1] = test system: ATF2 transcriptional activity; assay: Jun2-luciferase reporter assay in SW1 cells; assay type: cell-based; conditions: Mus musculus, Jun2-Luc, 8 h, read-out: concentration required to cause about 50% inhibition of ATF2 transcriptional activity
Description: (§1) Constructs and inhibitors. An ATF2 peptide (aa 51-100) was cloned into HA-tagged pcDNA3 vector as previously described (Bhoumik et al., Cancer Res 64:8222-30, 2004). 5×Jun2tk-Luc (marker for ATF2 transcriptional activities), 5×TRE-tk-Luc (marker for AP1/c-Jun transcriptional activities) and 2×NF-B-Luc were previously described (Bhoumik et al., J Clin Invest 110:643-50, 2002). Pharmacological inhibitor of JNK (SP600125) was purchased (EMD biosciences) and added (5 μM) to cultured cells as indicated in Results.
(§2) Transcriptional analysis. Transient transfection of different reporter constructs into melanoma cells was performed using LIPOFECTAMINE PLUS transfection reagent (Invitrogen). Luciferase activity was determined as previously described (Bhoumik et al., PNAS 101:4222-7, 2004).
These compounds were next assessed for their impact on ATF2 transcriptional activity. The effect of AIGA on ATF2 transcriptional activities was measured by the Jun2-luciferase assay. SW1 cells were transfected with the Jun2-luciferase plasmid and 24 h later cells were treated with the indicated concentrations of AIGA or CSL for 8 h before proteins were prepared and level of luciferase activity was measured. ATF2 51-100 peptide was used as a positive control. Data shown represent results from 3 experiments. […]

SW1 melanoma cells = assay: Apoptosis by FACS of PI-stained SW1 cells; assay type: cell-based, mouse; conditions: 48 h
Description: Mitochondrial activity and apoptosis. Cells were exposed to the chemicals for 12-48 hours as indicated in Results. To measure changes in mitochondrial activity reflective of general cell viability, the ATPLITE ATP detection assay was used according to the manufacturer's recommendations (Perkin Elmer). Apoptosis analysis was performed by flow cytometry of PI-stained cells. The percentage of cells to the left of the diploid G0/1 peak, characteristic of hypodiploid cells that have partially lost DNA, was calculated as percentage of apoptotic cells (Bhoumik et al., PNAS 101:4222-7, 2004). Analysis of changes in Caspase 8 expression pattern was performed using immunoblot analysis.
The finding that CSL and AIGA reduced cell viability in melanoma was made using the ATPLITE assay, which monitors the degree of mitochondrial ATP release, a marker for mitochondrial activity. To directly assess possible changes in the apoptosis of melanoma cells following their exposure to CSL or AIGA, FACS analysis of the melanoma cells was performed 48 h after treatment. […] Treatment with 1 μM AIGA caused 15% apoptosis in these melanoma cultures (FIG. 4a). Treatment with CSL caused 13% apoptosis at a dose of 0.5 μM and 35% apoptosis at a dose of 1 μM (FIG. 4b). Consistent with these finding is the activation of caspases 8, a classic marker for apoptosis, which was observed upon addition of these compounds, by Western blot analysis. SW1 cells were treated with 0.5 μM AIGA, 0.5 μM CSL, 1.0 μM CSL for 24 hours. Staurosporin was used as a positive control. Immunoblot analysis using caspase 8 antibody monitored full length and cleaved forms (active) of caspase 8. β-actin was used as a loading control.

[2] = test system: JNK phosphorylation on residues 183/185; assay: Western blot for JNK phosphorylation in SW1 cells; assay type: cell-based, mouse; conditions: 0.5, 1.0, 2.0 μM
Description: (§3) Immunoblot analysis. Proteins prepared from cells at the indicated time points using RIPA buffer and 75 μg were separated on SDS-PAGE followed by immunoblot analysis using the antibodies indicated. Antibodies used were as follows: anti-JNK (Santa Cruz), phospho-JNK (Promega Corp.; Madison, Wis.), phospho c-Jun (Cell Signaling Technology, Inc.; Danvers, Mass.), c-Jun (Santa Cruz Biotechnology, Inc.; Santa Cruz, Calif.) and Caspase 8 (BD Biosciences; San Jose, Calif.).
Thus, the two compounds were evaluated to determine if they require JNK activity for their effects on melanoma cells. To this end, the ability of AIGA or CSL to affect the viability of melanoma cells in the presence of a JNK inhibitor was tested. SW1 cells, with or without a 30-minute pretreatment with the JNK inhibitor SP600125 (10 μM), were contacted with AIGA or CSL at the indicated concentrations for 20 h. ATP levels were used to measure the cell viability using the ATPLITE kit. […] To assess whether these compounds affect JNK activity, changes in JNK phosphorylation on residues 183/185, which are required for its kinase activity, were monitored. […] Total level of JNK was analyzed in parallel. […]

phosphorylation of c-Jun = assay: Western blot for c-Jun phosphorylation in SW1 cells; assay type: cell-based, mouse; conditions: AIGA 0.5 or 2.0 μM, CSL 0.5 or 1.0 μM, 20 h
Description: as §3
The activation of JNK by both compounds was confirmed upon analysis of its substrate c-Jun. SW1 cells were pretreated with the JNK inhibitor SP600125 followed by addition of AIGA (0.5 μM or 2.0 μM) or CSL (0.5 μM or 1.0 μM) for 20 h. Total protein extracts were used to determine the phosphorylation of c-Jun.

[3] = test system: AP1/c-Jun transcriptional activity; assay: TRE-luciferase reporter assay in SW1 cells; assay type: cell-based, mouse; conditions: 8 h; for AP1/c-Jun transcriptional activity (TRE-Luc): compounds compared with ATF2 peptide; for dose from which c-Jun transcriptional activity is induced: TRE-Luc
Description: as §1, §2
The effects of the two compounds on c-Jun transcriptional activity in mouse melanoma SW1 cells was assessed. SW1 cells were transfected with the TRE-luciferase plasmid and 24 h later, cells were treated with the indicated concentrations of AIGA or CSL for 8 h before proteins were prepared and level of luciferase activity was measured. ATF250-100 peptide was used as a positive control. Data shown represent results from 3 experiments. […] AIGA induced c-Jun transcriptional activity at doses starting from 0.1 μM (FIG. 2a).

[4] = test system: normal human breast cultures MCF10; assay: Toxicity on normal human breast cultures; assay type: cell-based

**Q.** With `CC1=C(O)C(=O)C=C2C1=CC=C1[C@@]2(C)CC[C@@]2(C)[C@@H]3C[C@](C)(C(=O)O)CC[C@]3(C)CC[C@]12C` [Celastrol] as the compound, how does the IC50 [1] read?
**A.** Its IC50 is about 50 nM.

**Q.** What about the “% apoptosis of SW1 melanoma cells” value (SW1 melanoma cells; 0.5 μM) of the same compound?
**A.** Its value is 13%.

**Q.** And the “% apoptosis of SW1 melanoma cells” value (SW1 melanoma cells; 1 μM)?
**A.** Its value is 35%.

**Q.** What about the “phosphorylation of JNK on residues 183/185” value [2] of the same compound?
**A.** The value was “induced phosphorylation of JNK”.

**Q.** And the c-Jun phosphorylation (phosphorylation of c-Jun)?
**A.** The c-Jun phosphorylation was “efficiently induced c-Jun phosphorylation, with CSL being more potent”.

**Q.** What about the “AP1/c-Jun transcriptional activity (TRE-Luc)” value [3] of the same compound?
**A.** Its value is “stronger activation of c-Jun transcription”.

**Q.** What about the “dose from which c-Jun transcriptional activity is induced” value [3] of the same compound?
**A.** Its value is at least 0.01 µM.

**Q.** And the “toxic effect on normal human breast cultures MCF10” value ([4]; data not shown)?
**A.** The value was “Neither CSL nor AIGA elicited toxic effect”.

**Q.** How did the IC50 [1] turn out when `CC(=O)Oc1c2c(c(CC=C(C)C)c3c1C(=O)C1=C[C@@H]4CC5C(C)(C)OC(C/C=C(\C)C(=O)O)(C4=O)[C@@]15O3)OC(C)(CCC=C(C)C)C=C2` (stereo partly drawn) [AIGA, Acetyl isogambogic acid] was run?
**A.** The IC50 was about 500 nM.

**Q.** And the “% apoptosis of SW1 melanoma cells” value (SW1 melanoma cells; 1 μM)?
**A.** Its value is 15%.

**Q.** And the “phosphorylation of JNK on residues 183/185” value [2]?
**A.** Its value is “induced phosphorylation of JNK”.

**Q.** What about the c-Jun phosphorylation (phosphorylation of c-Jun) of the same compound?
**A.** Its c-Jun phosphorylation is “efficiently induced c-Jun phosphorylation”.

**Q.** And the “AP1/c-Jun transcriptional activity (TRE-Luc)” value [3]?
**A.** Its value is “stronger activation of c-Jun transcription”.

**Q.** And the “dose from which c-Jun transcriptional activity is induced” value [3]?
**A.** The value was at least 0.1 µM.

**Q.** And the “toxic effect on normal human breast cultures MCF10” value [4]?
**A.** Its value is “Neither CSL nor AIGA elicited toxic effect”.
